In US9580465B2, “Tissue protective peptides and peptide analogs for preventing and treating diseases and disorders associated with tissue damage” (ARAIM PHARMACEUTICALS, INC., priority 2008, dated 2017):
Several values for one entry are separate records, joined by “and”; a condition that tells them apart may be missing. Equal entries are not always repeated. Entries after “also recorded” stand apart in the source; their conditions may differ. Square brackets hold non-standard residues; d marks the D form. pGlu = O=C1CC[C@@H](C(=O)O)N1

Experiments:
[1] = tested on: middle cerebral artery occlusion; assay: Middle cerebral artery occlusion model; type: in vivo, Sprague Dawley rats; details: 2 μg/kg bw i.v. upon reperfusion, then three injections at 2-hour intervals
Experimental: Sprague Dawley rats (8 per group) are subjected to the following MCAO protocol Surgery was performed in accordance with the teachings of Brines et al, 2000, PNAS USA 97:10526-10531 (hereby incorporated by reference in its entirety. Briefly, the rats are anesthetized with chloral hydrate (400 mg/kg-bw, i.p.), the carotid arteries were visualized, and the right carotid was occluded by two sutures and severed. A burr hole adjacent and rostral to the right orbit allowed visualization of the middle cerebral artery (“MCA”), which was cauterized distal to the rhinal artery. To produce a penumbra (border zone) surrounding this fixed MCA lesion, the contralateral carotid artery was occluded for 1 hour by using […] provided by a fine forceps and then re-opened.
The rats were administered saline, Peptide ID as a single i.v. dose (2 μg/kg bw), or Peptide IX, […], SEQ ID NO: 301), a scrambled version of Peptide IC, SEQ ID NO: 281, as a single Lv. dose (2 μg/kg bw) upon reperfusion, followed by three additional injections at 2-hour intervals. For assessment of injury, rats are subjected to behavioral testing or the volume of the lesion is determined by tetrazolium staining of brain sections performed 24 hours post surgery in accordance with the previously noted protocol.
The volume of the lesion was then determined by tetrazolium staining of brain sections performed 24 hours post surgery.
Rats were also tested in a foot fault behavioral protocol. Rats were tested on an elevated stainless steel grid floor 30 cm×30 cm with grid size of 30 mm according to the protocol of Markgraf et al., 1992, Brain Research 575:238-246 (hereby incorporated by reference in its entirety). When placed on the grid, a rat would attempt to move around and occasionally place a foot, rather than on the grid, through a grid opening (“foot fault”). The number of foot faults was measured for a 1 minute period.
The number of foot faults is indicative of the cognitive impairment of the rats due to the MCAO, the fewer the number of foot faults the less cognitive impairment.

bilateral renal ischemia = assay: Bilateral renal ischemia assay; type: in vivo, C57/BL6 mice
Experimental: Sixty male C57/BL6 mice (˜25 g; Charles River Laboratories) were anesthetized with ketamine (150 mg/kg) and xylazine (15 mg/kg) i.p. Each animal was placed on a homeothermic blanket set at 37° C., and after a mid-line laparotomy, the renal pedicles were clamped for 30 minutes using nontraumatic vascular clamps. Peptide ID was administered at the indicated dose via i.p. Injection at 1 minute, 6 hours, and 12 hours after reperfusion. In a single dose study, the mice received a control (PBS), 1 μg/kg of Peptide IG at 1 minute, 1 μg/kg of Peptide IG at 30 minutes, 1 μg/kg of Peptide ID at 6 hours, or 10 μg/kg of Peptide ID at 6 hours (12 mice per group). In a multiple dose study, the mice received either multiple doses of a control (PBS), 0.1 μg/kg of Peptide ID, 1 μg/kg of Peptide ID, or 10 μg/kg of Peptide ID at 1 minute, 6 hours and 12 hours into reperfusion.
Twenty-four hours later, mice were reanesthetized and blood was obtained by cardiac puncture. Plasma urea and creatine were used as indicators of renal dysfunction and aspartate aminotransferase was used as an indicator of renal injury. Data were analyzed using ANOVA followed by Dunnett's post hoc test comparison.

histamine = assay: Histamine induced wheal formation, peptide given at time of challenge; type: in vivo, Sprague-Dawley rats; details: 30 μg/kg at time of histamine challenge
Experimental: Under isoflurane anesthesia, 12 Sprague-Dawley rats' abdomens were shaved and depilated. Each rat was then injected intravenously (via internal jugular) with a dilute solution of Evans Blue (30 mg/ml in saline, 1 ml/kg bw). After 5 minutes, 6 small doses of histamine (Histamine diphosphate, 20 microliters administered intradermally) in a rectangular pattern on each rat's abdomen. After fifteen minutes, when the wheal reaches its maximum size the wheal is photographed and the blister area was determined by digital planimetry. To test the efficacy of various peptides, the peptide of interest was administered to the rats intravenously shortly after the histamine injection.
Rats received either saline, Peptide IY (30 μg/kg), Peptide ID (30 μg/kg), or Peptide IW (30 μg/kg) at time of histamine challenge.
Rats received either saline, peptide JA (30 μg/kg), peptide IZ (30 μg/kg), peptide IW (30 μg/kg) or peptide ID (30 μg/kg) at time of histamine challenge.

pressure ulcer = assay: Decubitus ulcer (pressure sore) assay; type: in vivo, Sprauge-Dawley rats; details: FIG. 20
Experimental: A decubitus ulcer (pressure sore) assay was performed on 24 adult Sprauge-Dawley rats in accordance with the disclosure of Pierce et al., Selective A2A adenosine receptor activation reduces skin pressure ulcer formation and inflammation, Am J Physiol Heart Circ Physiol 281:67-74, 2001. Briefly, a ferromagnetic steel plate was implanted under a dorsal region of the rats skin. A rectangular permanent magnet was applied to the area of the skin under which the plate was implanted in order to compress the skin between the plate and the magnet. This compression reduced the flow of blood to the skin causing ischemia. The rats were subjected to a cycle of ischemia-reperfusion (2 hours ischemia with a 0.5 hour reperfusion) for a 72-hour period. […] Daily the area of the wound on each rat was measured for a period of 12 days.

[2] = tested on: total body gamma radiation; assay: Radiomitigating activity in hematopoietic screening assay; type: in vivo, C57BL/6 mice; details: for survival at day 30: 30 ug/kg subcutaneously from 24 hrs after irradiation, daily for 29 days
Experimental: The ability of peptides useful in the current therapeutic method to mitigate the effects of a radioactive agent on the hematopoietic system was evaluated in a murine model of radiation injury. Briefly, 80 C57BL/6 mice (50% female and 50% male, 15-28 gm) were used in the study were divided into two groups.
In both groups the radiation was administered to the mice as a single uniform total body dose of gamma radiation from a ^137Cs radiation source (GammaCell 40; Nordion International, Kanata, Ontario, Canada) at an exposure rate of 65-69 cGy/minute+/−2.5 cGy.
Group A received a LD70/30 dose of radiation (796 cGy) and then 20 of the mice were administered Peptide ID (30 ug/kg subcutaneously) at 24 hrs after irradiation and then once a day for 29 days. The remaining 20 mice (control group) received PBS (subcutaneously) at 24 hrs after irradiation and then once a day for 29 days.
The remaining 20 mice (control group) received PBS (subcutaneously) at 24 hrs after irradiation and then once a day for 29 days.
The mice were monitored for survival once a day until signs of early euthanasia appeared, then twice/day until day 30.

Sequence: UEQLERALNSS ([pGlu]EQLERALNSS-OH; also: acetate/ammonium mixed salt) [Peptide ID, first glutamine replaced with pyroglutamate]
- infarct volume (volume of lesion) ([1]; 24 hours post surgery, tetrazolium staining): 225±20 mm^3
- number of foot faults in 1 minute period ([1]; after MCAO, FIG. 5): 11.2±1.1 foot faults
- creatinine, urea and aspartate aminotransferase (biochemical markers of renal dysfunction) (bilateral renal ischemia; multiple doses 1 μg/kg at 1 minute, 6 hours and 12 hours into reperfusion, FIG. 7): reduction in these biochemical markers of renal dysfunction
- creatinine, urea and aspartate aminotransferase (biochemical markers of renal dysfunction) (bilateral renal ischemia; multiple doses 10 μg/kg at 1 minute, 6 hours and 12 hours into reperfusion, FIG. 7): reduction in these biochemical markers of renal dysfunction
- creatinine, urea and aspartate aminotransferase (biochemical markers of renal dysfunction) (bilateral renal ischemia; single dose 1 μg/kg at 6 hours into reperfusion, 24 hrs of reperfusion, FIG. 6): reduction in these biochemical markers of renal dysfunction
- creatinine, urea and aspartate aminotransferase (biochemical markers of renal dysfunction) (bilateral renal ischemia; single dose 10 μg/kg at 6 hours into reperfusion, 24 hrs of reperfusion, FIG. 6): reduction in these biochemical markers of renal dysfunction
- wheal area (lesion area) (histamine; FIG. 18): about 0.35 cm^2
- wheal area (lesion area) (histamine; FIG. 19): ~0.35 cm^2 and 0.4 cm^2
- wound (ulcer) size (area) (pressure ulcer; 30 μg/kg sc daily, compared with all groups): smallest wound size
- wound (ulcer) size (area) (pressure ulcer; Peptide ID 30 μg/kg sc twice or daily, EPO daily, 12 days, versus saline): reduced the size of the wound; also recorded: better wound healing
- survival at day 30 ([2]; 796 cGy (LD70/30), FIG. 21A): 45%
- thirty-day survival and overall survival time versus PBS ([2]; 796 cGy and 831 cGy, 30 ug/kg subcutaneously daily): significantly increased the overall survival time
- survival at day 30 ([2]; 831 cGy (LD90/30), FIG. 21B): 20%
